Values quoted from earlier work in US9284297B2, “Halofuginone analogs for inhibition of tRNA synthetases and uses thereof” (President and Fellows of Harvard College, priority 2008, dated 2016).

What was measured:
[1] = system: dermal ECM deposition; settings: introduced intraperitoneally, added to food, or applied locally; cited from earlier work
[2] = system: CD4+ CD25− T cells (Th1, Th2, iTreg differentiation, proliferation, CD25), CD8+ T cells, B cells; settings: cited from earlier work

O=C(CC1NCCCC1O)Cn1cnc2cc(Br)c(Cl)cc2c1=O (centres unmarked) [Compound 1, 7-bromo-6-chloro-3-[3-(3-hydroxy-2-piperidinyl)-2-oxopropyl]-4(3H)-quinazolinone]
dermal ECM deposition [1]: reduces excess dermal ECM deposition
concentrations that generally inhibit CD4+ T cell, CD8+ T cell, and B220+ B cell activation [2]: 20 to 40 nM
